# Test results reported in ChEMBL document CHEMBL1151339, “Antitumor agents from bohemic acid complex, III. The isolation of marcellomycin, musettamycin, rudolphomycin, mimimycin, collinemycin, alcindoromycin, and bohemamine” (J Nat Prod, 1980).
# Columns and labels:
# Mus musculus [1] = experiment: Toxicity in BDF1 mouse xenografted with mouse L1210 cells assessed as survival at 6.4 mg/kg, ip after 5 days; format: organism-based; set-up: dose 6.4 mg/kg, route intraperitoneal; conditions: in vivo, 120 h
# Mus musculus [2] = experiment: Toxicity in BDF1 mouse xenografted with mouse L1210 cells assessed as survival at 3.2 mg/kg, ip after 5 days; format: organism-based; set-up: dose 3.2 mg/kg, route intraperitoneal; conditions: in vivo, 120 h
# Mus musculus [3] = experiment: Toxicity in BDF1 mouse xenografted with mouse L1210 cells assessed as survival at 1.6 mg/kg, ip after 5 days; format: organism-based; set-up: dose 1.6 mg/kg, route intraperitoneal; conditions: in vivo, 120 h
# Pseudomonas aeruginosa = experiment: Antibacterial activity against Pseudomonas aeruginosa A-9843A by 2-fold tube dilution method; format: functional
# Enterococcus faecalis = experiment: Antibacterial activity against Streptococcus faecalis A20688 by 2-fold tube dilution method; format: functional
# Staphylococcus = experiment: Antibacterial activity against penicillin resistant Staphylococcus A-9606 by 2-fold tube dilution method; format: functional
# Streptococcus pneumoniae = experiment: Antibacterial activity against Streptococcus pneumoniae A-9585 by 2-fold tube dilution method; format: functional
# Streptococcus pyogenes = experiment: Antibacterial activity against Streptococcus pyogenes A-9604 by 2-fold tube dilution method; format: functional
# Staphylococcus aureus = experiment: Antibacterial activity against Staphylococcus aureus A-9497 by 2-fold tube dilution method; format: functional
# Escherichia coli [4] = experiment: Antibacterial activity against Escherichia coli A15119 by 2-fold tube dilution method; format: functional
# Escherichia coli [5] = experiment: Antibacterial activity against Escherichia coli A20341-1 by 2-fold tube dilution method; format: functional
# Klebsiella pneumoniae = experiment: Antibacterial activity against Klebsiella pneumoniae A15130 by 2-fold tube dilution method; format: functional
# Proteus mirabilis = experiment: Antibacterial activity against Proteus mirabilis A-9900 by 2-fold tube dilution method; format: functional
# Proteus vulgaris = experiment: Antibacterial activity against Proteus vulgaris A21559 by 2-fold tube dilution method; format: functional
# Serratia marcescens = experiment: Antibacterial activity against Serratia marcescens A20019 by 2-fold tube dilution method; format: functional
# Enterobacter cloacae = experiment: Antibacterial activity against Enterobacter cloacae A-9659 by 2-fold tube dilution method; format: functional
# Candida albicans [6] = experiment: Antifungal activity against Candida albicans A-9540 by 2-fold tube dilution method; format: functional
# Candida albicans [7] = experiment: Antifungal activity against Candida albicans A15049 by 2-fold tube dilution method; format: functional
# Candida albicans [8] = experiment: Antifungal activity against Candida albicans A15050 by 2-fold tube dilution method; format: functional
# Candida tropicalis = experiment: Antifungal activity against Candida tropicalis A15051 by 2-fold tube dilution method; format: functional
# Pichia kudriavzevii = experiment: Antifungal activity against Candida krusei A15052 by 2-fold tube dilution method; format: functional
# [9] = system: Trichophyton mentagrophytes; experiment: Antifungal activity against Trichophyton mentagrophytes A-9870 by 2-fold tube dilution method; format: functional
# Microsporum canis = experiment: Antifungal activity against Microsporum canis A-9872 by 2-fold tube dilution method; format: functional
# L1210 [10] = experiment: Antitumor activity against mouse L1210 cells xenografted in BDF1 mouse assessed as median survival time at 12.8 mg/kg, ip; format: functional; conditions: route intraperitoneal
# L1210 [11] = experiment: Antitumor activity against mouse L1210 cells xenografted in BDF1 mouse assessed as median survival time at 6.4 mg/kg, ip; format: functional; conditions: route intraperitoneal
# L1210 [12] = experiment: Antitumor activity against mouse L1210 cells xenografted in BDF1 mouse assessed as median survival time at 3.2 mg/kg, ip; format: functional; conditions: route intraperitoneal
# L1210 [13] = experiment: Antitumor activity against mouse L1210 cells xenografted in BDF1 mouse assessed as median survival time at 1.6 mg/kg, ip; format: functional; conditions: route intraperitoneal
# L1210 [14] = experiment: Antitumor activity against mouse L1210 cells xenografted in BDF1 mouse assessed as median survival time at 51.2 mg/kg, ip; format: functional; conditions: route intraperitoneal
# L1210 [15] = experiment: Antitumor activity against mouse L1210 cells xenografted in BDF1 mouse assessed as median survival time at 25.6 mg/kg, ip; format: functional; conditions: route intraperitoneal
# L1210 [16] = experiment: Antitumor activity against mouse L1210 cells xenografted in BDF1 mouse at 12.8 mg/kg, ip relative to control; format: functional; conditions: route intraperitoneal
# L1210 [17] = experiment: Antitumor activity against mouse L1210 cells xenografted in BDF1 mouse at 6.4 mg/kg, ip relative to control; format: functional; conditions: route intraperitoneal
# L1210 [18] = experiment: Antitumor activity against mouse L1210 cells xenografted in BDF1 mouse at 3.2 mg/kg, ip relative to control; format: functional; conditions: route intraperitoneal
# L1210 [19] = experiment: Antitumor activity against mouse L1210 cells xenografted in BDF1 mouse at 1.6 mg/kg, ip relative to control; format: functional; conditions: route intraperitoneal
# L1210 [20] = experiment: Antitumor activity against mouse L1210 cells xenografted in BDF1 mouse at 51.2 mg/kg, ip relative to control; format: functional; conditions: route intraperitoneal
# L1210 [21] = experiment: Antitumor activity against mouse L1210 cells xenografted in BDF1 mouse at 25.6 mg/kg, ip relative to control; format: functional; conditions: route intraperitoneal
# L1210 [22] = experiment: Antitumor activity against mouse L1210 cells xenografted in BDF1 mouse assessed as change in tumor average weight at 12.8 mg/kg, ip; format: functional; conditions: route intraperitoneal
# L1210 [23] = experiment: Antitumor activity against mouse L1210 cells xenografted in BDF1 mouse assessed as change in tumor average weight at 6.4 mg/kg, ip; format: functional; conditions: route intraperitoneal
# L1210 [24] = experiment: Antitumor activity against mouse L1210 cells xenografted in BDF1 mouse assessed as change in tumor average weight at 3.2 mg/kg, ip; format: functional; conditions: route intraperitoneal
# L1210 [25] = experiment: Antitumor activity against mouse L1210 cells xenografted in BDF1 mouse assessed as change in tumor average weight at 1.6 mg/kg, ip; format: functional; conditions: route intraperitoneal
# L1210 [26] = experiment: Antitumor activity against mouse L1210 cells xenografted in BDF1 mouse assessed as change in tumor average weight at 51.2 mg/kg, ip; format: functional; conditions: route intraperitoneal
# L1210 [27] = experiment: Antitumor activity against mouse L1210 cells xenografted in BDF1 mouse assessed as change in tumor average weight at 25.6 mg/kg, ip; format: functional; conditions: route intraperitoneal
# Mus musculus [28] = experiment: Toxicity in BDF1 mouse xenografted with mouse L1210 cells assessed as survival at 12.8 mg/kg, ip after 5 days; format: organism-based; set-up: dose 12.8 mg/kg, route intraperitoneal; conditions: in vivo, 120 h
smiles,measurement,setting,value
CC[C@@]1(O)C[C@H](O[C@H]2C[C@H](N(C)C)[C@H](O[C@H]3C[C@H](O)[C@H](O[C@@H]4C[C@H](O)[C@H](O)[C@H](C)O4)[C@H](C)O3)[C@@H](C)O2)c2c(cc3c(c2O)C(=O)c2c(O)ccc(O)c2C3=O)[C@@H]1C(=O)OC [MIMIMYCIN],Activity,Mus musculus [1],Non-toxic
same,Activity,Mus musculus [2],Non-toxic
same,Activity,Mus musculus [3],Non-toxic
same,MIC,Pseudomonas aeruginosa,> 125 µg/mL
same,MIC,Enterococcus faecalis,4 µg/mL
same,MIC,Staphylococcus,63 µg/mL
same,MIC,Streptococcus pneumoniae,1 µg/mL
same,MIC,Streptococcus pyogenes,2 µg/mL
same,MIC,Staphylococcus aureus,8 µg/mL
same,MIC,Escherichia coli [4],> 125 µg/mL
same,MIC,Escherichia coli [5],> 125 µg/mL
same,MIC,Klebsiella pneumoniae,> 125 µg/mL
same,MIC,Proteus mirabilis,> 125 µg/mL
same,MIC,Proteus vulgaris,> 125 µg/mL
same,MIC,Serratia marcescens,> 125 µg/mL
same,MIC,Enterobacter cloacae,> 125 µg/mL
same,MIC,Candida albicans [6],> 16 µg/mL
same,MIC,Candida albicans [7],> 16 µg/mL
same,MIC,Candida albicans [8],> 16 µg/mL
same,MIC,Candida tropicalis,> 16 µg/mL
same,MIC,Pichia kudriavzevii,> 16 µg/mL
same,MIC,[9],> 16 µg/mL
same,MIC,Microsporum canis,> 16 µg/mL
same,Activity,L1210 [10],8.5 days
same,Activity,L1210 [11],9 days
same,Activity,L1210 [12],8 days
same,Activity,L1210 [13],7.5 days
same,Activity,L1210 [14],10 days
same,Activity,L1210 [15],8 days
same,T/C,L1210 [16],113%
same,T/C,L1210 [17],120%
same,T/C,L1210 [18],107%
same,T/C,L1210 [19],100%
same,T/C,L1210 [20],133%
same,T/C,L1210 [21],107%
same,Activity,L1210 [22],-0.3 g
same,Activity,L1210 [23],-1.3 g
same,Activity,L1210 [24],1.3 g
same,Activity,L1210 [25],0.5 g
same,Activity,L1210 [26],-3.2 g
same,Activity,L1210 [27],0.1 g
same,Activity,Mus musculus [28],Non-toxic
